Assay results as given in patent US8524659B2, “RNA virus-derived peptides with modified side chains” (National Taiwan University, priority 2011, dated 2013).

How the values were obtained:
Jurkat cells [1] = assay: Cellular uptake assay by flow cytometry; type: cell-based; conditions: for Mean fluorescence intensity: Jurkat cells
Procedure: All apparatuses were sterilized by autoclave sterilizer, and the experimental surfaces were wiped with 70% ethanol. All operations were performed in a laminar flow hood. The number of cells was determined by a hemacytometer. There were 9 squares with 1.0 mm^2 area and 0.1 mm depth in the hemacytometer. The number of cells in the four corner squares was counted and averaged. The average was multiplied by 10^4 to obtain the number of cells in a 1 mL suspension. The cellular uptake experiments were performed using 8×10^5 cells. […] The cells were then washed with PBS (2 g/L KCl, 2 g/L KH2PO4, 80 g/L NaCl, 11.5 g/L Na2PO4) (2×400 μL) to remove the fetal bovine serum which might interfere with the proteolytic activity of trypsin. The cells were then incubated with 0.05% trypsin/EDTA in PBS for 5 minutes to remove the peptides which adhered to the cell surface rather than entry to the cell. The cells were washed with PBS (2×400 μL). The cells were then resuspended in 500λ PBS and transferred into the flow tube. The cells were terminated by adding Triton-X 100 to give the dead control group. Propidium iodide (PI) was added to all samples to stain the dead cells but should not stain the live cells. Fluorescence analysis for the Jurkat cells was performed with a flow cytometer (FACScan, Becton Dickinson Bioscience). The voltage of the photomultiplier tube for forward scatter, side scatter and propidium iodide was set to 270, 470, and 350, respectively. Live cells containing appropriate forward scatter and side scatter values were selected and gated as the P1 region for normal and live cells in the live control group. The minimum propidium iodide fluorescence intensity for the dead cells treated with propidium iodide in the P1 region was set as the threshold value for dead cells. In other words, cells with propidium iodide fluorescence below the threshold value would be deemed live cells. The fluorescence of 6-carboxyfluorescein was considered when the cell morphology was in the P1 region and the propidium iodide fluorescence intensity was lower than the threshold value. The 6-carboxyfluorescein fluorescence intensity was acquired for 10,000 events at room temperature. The data presented are the mean fluorescence intensity for the 10,000 cells. Each experiment was independently repeated at least three times.
Cellular uptake experiments were performed on Jurkat cells, because these cells belonged to a CD4+ helper T cell cancer cell line which was the target of HIV. Jurkat cells were incubated separately with various concentration (7, 30, 60, 120 μM) of Flu-XaaTat for 15 minutes at 37° C. in the presence of fetal bovine serum, and then treated with trypsin to remove cell-surface bound peptide.

Jurkat cells [2] = assay: Fluorescence microscope of live Jurkat cells; type: cell-based; conditions: 37° C.; for Cellular uptake seen in fluorescence microscopy images: 7 μM peptide, 15 minutes, fetal bovine serum, trypsin 5 minutes, FIG. 1; for Cellular uptake seen in fluorescence microscope images: 30 μM peptide, 5% CO2, 15 minutes, trypsinized 10 minutes, FIG. 7
Procedure: […] After incubation, the suspension was centrifuged at 2200 rpm. The cells were washed with phosphate buffered saline (137 mM NaCl, 2.7 mM KCl, 10 mM sodium phosphate dibasic, 2 mM potassium phosphate monobasic, pH 7.4) twice to remove extracellular peptide. […] Finally, cells were resuspended in 500 μL PBS containing 1 μg/mL propidium iodide. The cells were then examined by a fluorescence microscope (Olympus IX71) (492/517 nm; excitation/observation).

Jurkat cells [3] = assay: MTT assay for determining cell survival; type: cell-based; conditions: 7 μM and 30 μM peptide, 4 hours, 37° C., FIG. 4
Procedure: The cells were grown to appropriate cell density (roughly 2×10^6 cells/mL) and transferred into new media one day before performing the experiment. For each assay, 8×10^5 cells as determined by a hemocytometer were added into an eppendorf. The cells were centrifuged at 2200 rpm for 5 minutes. The supernatant was removed by suction. Then 200 μL of 7 μM or 30 μM XaaTat peptide was added. The cells were incubated for 4 hours at 37° C. and then centrifuged at 2200 rpm for 5 minutes. The cells were washed with RPMI medium twice, and then 200 μL of 0.5 mg/mL MTT in serum free RPMI buffer was added and incubated at 37° C. for 3.5 hours. The cells were then centrifuged at 4000 rpm for 5 minutes. The supernatant was then transferred to two wells (100 μL each) of a 96-well plate. Then 400 μL DMSO was added to the cells in the assaying eppendorf. The eppendorf was then vortexed for 5 minutes to solubilize the MTT purple crystals, and centrifuged at 2200 rpm for 5 minutes. Then the supernatant was transferred to 4 wells (100 μL each) of the 96-well plate for analysis. The absorbance at 570 was determined for each well using a microplate reader with the absorbance at 655 nm used for background correction. A standard curve was generated using different number of cells (8×10^5, 4×10^5 and 2×10^5). The absorbance for each sample for each peptide at each concentration was then correlated to the number of live cells based on the standard curve.

HIV TAR RNA [4] = assay: Fluorescence anisotropy binding of Tat peptides to fluorescein-labeled TAR RNA; conditions: Table 2; read-out: KD, binding affinity of Tat-peptide and TAR RNA by fluorescence anisotropy assay
Procedure: The binding affinity of XaaTat peptides (Xaa=Agh, Arg and Agb) for TAR RNA was measured by fluorescence anisotropy using a Varian Cary Eclipse fluorescence spectrophotometer. The anisotropy (r) was calculated using the following equation: […]
where Ivv, Ivh, Ihh, Ihv are the fluorescence intensities with the excitation polarizer and emission polarizer is oriented perpendicular (Ivh and Ihv) and parallel (Ivv and Ihh) to the direction of the polarized excitation. The fluorescein-labeled TAR RNA (F-TAR-RNA) was excited at 490 nm and the polarized emissions were monitored at 512 nm. The slits were set at 10 nm for both excitation and emission. The integration time was 20 seconds. All data were measured in a Sub-Micro (Starna Cell, Inc.) with a starting volume of 160 μL. Each addition (1 μL) of XaaTat was equilibrated for two minutes before the fluorescence signal was recorded. All experiments were performed at room temperature in TKT buffer (TKT: 50 mM Tris-HCl, pH 7.4, 20 mM KCl and 0.02% Tween20). The initial concentration of F-TAR-RNA was 25 nM. The TKT solution and peptide stock solution were both equilibrated at room temperature more than 20 minutes before the experiment. The experiment was repeated three times independently. For every single point, three measurements were performed and the average value was used for deriving the apparent (apparent KD). The apparent for the peptide-RNA complex was derived by fitting the data assuming a 1:1 peptide-RNA stoichiometry. The fitting was performed using Kaleidagraph 3.52. (Synergy Software, CA).

HIV TAR RNA [5] = assay: Gel shift assay (EMSA) with fluorescein-labeled TAR RNA in the presence of poly(dI-dC); type: binding
Procedure: The fluorescein-labeled TAR RNA (F-TAR-RNA) was purchased from Sigma. F-TAR-RNA was dissolved in diethyl pyrocarbonate treated H2O to give a 50 μM solution. Binding assays were performed at room temperature. Peptide and RNA were incubated in pH 7.4 buffer (10 μL) containing Tris-HCl (50 mM), KCl (50 mM), poly-dIdC (10 μg/mL), 2% glycerol, and Triton X-100 (0.05%). The F-TAR-RNA concentration was 100 nM. The samples were analyzed by loading into 12% native polyacrylamide gels in […] and electrophoresis was performed with 140 V at room temperature. Dried gels were scanned by the Typhoon TRIO+ Variable Mode Imager. Bands corresponding to the free and bound RNA were quantified using ImageQuant software. The apparent dissociation constants were globally derived from the quantified data assuming a 1:1 binding stoichiometry.

[6] = in the presence of poly(dI-dC) at 25° C., Table 3, read-out: KD, dissociation constant of Tat-peptide and TAR RNA by gel shift assay

Row | Molecule | Mean fluorescence intensity (Jurkat cells [1]; 30 μM peptide) | Mean fluorescence intensity (Jurkat cells [1]; 60 μM peptide) | Mean fluorescence intensity (Jurkat cells [1]; 90 μM peptide) | Mean fluorescence intensity (Jurkat cells [1]; 120 μM peptide) | Cellular uptake seen in fluorescence microscope images (Jurkat cells [2]) | Kd (HIV TAR RNA [4]) | Kd (HIV TAR RNA [5]; [6]) | other results
1 | 6-carboxyfluorescein-βAla-Tyr-Gly-Agb-Lys-Lys-Agb-Agb-Gln-Agb-Agb-Agb-NH2 [Flu-AgbTat] | – | – | – | – | – | – | – | Uptake into cells compared to Flu-ArgTat and Flu-AghTat (Jurkat cells [1]; 7 μM peptide, 15 minutes, 37° C., fetal bovine serum, FIG. 2A): 3 times; Cellular uptake seen in fluorescence microscopy images (Jurkat cells [2]): Obvious cellular uptake
2 | CC(=O)N[C@@H](Cc1ccc(O)cc1)C(=O)NCC(=O)N[C@@H](CCCCNC(=N)N)C(=O)N[C@@H](CCCCN)C(=O)N[C@@H](CCCCN)C(=O)N[C@@H](CCCCNC(=N)N)C(=O)N[C@@H](CCCCNC(=N)N)C(=O)N[C@@H](CCC(N)=O)C(=O)N[C@@H](CCCCNC(=N)N)C(=O)N[C@@H](CCCCNC(=N)N)C(=O)N[C@@H](CCCCNC(=N)N)C(N)=O [AghTat, Ac-Tyr-Gly-Agh-Lys-Lys-Agh-Agh-Gln-Agh-Agh-Agh-NH2] | – | – | – | – | – | – | – | Cytotoxicity (cell survival) (Jurkat cells [3]): minimal cytotoxicity
3 | 6CF-βAla-Tyr-Gly-Arg-Lys-Lys-Arg-Arg-Gln-Arg-Cit-Arg-NH2 [6CF-Tat-Cit56] | 429 ± 95 a.u. | 2305 ± 249 a.u. | 6094 ± 792 a.u. | 11617 ± 1339 a.u. | significant cellular uptake | – | – | –
4 | Ac-Tyr-Gly-Arg-Lys-Lys-Cit-Arg-Gln-Arg-Arg-Arg-NH2 [Tat-Cit52] | – | – | – | – | – | 116 ± 17 nM | 235 ± 45 nM | –
5 | Ac-Tyr-Gly-Arg-Lys-Lys-Arg-Arg-Gln-Cit-Arg-Arg-NH2 [Tat-Cit55] | – | – | – | – | – | 99 ± 14 nM | 279 ± 74 nM | –
6 | Ac-Tyr-Gly-Arg-Lys-Lys-Arg-Arg-Gln-Arg-Arg-Cit-NH2 [Tat-Cit57] | – | – | – | – | – | 49 ± 6 nM | 146 ± 30 nM | –
7 | 6CF-βAla-Tyr-Gly-Arg-Lys-Lys-Cit-Arg-Gln-Arg-Arg-Arg-NH2 [6CF-Tat-Cit52] | 1221 ± 116 a.u. | 5332 ± 612 a.u. | 10040 ± 726 a.u. | 12378 ± 972 a.u. | significant cellular uptake | – | – | –
8 | Ac-Tyr-Gly-Arg-Lys-Lys-Arg-Arg-Gln-Arg-Arg-Agp-NH2 [Ac-Agp57-Tat-NH2] | – | – | – | – | – | – | – | Kd (HIV TAR RNA [5]; in the presence of 10 μg/mL poly(dI-dC), FIG. 9, read-out: KD of peptide and TAR-RNA by gel shift assay): 56 ± 12 nM
9 | 6-carboxyfluorescein-βAla-Tyr-Gly-Arg-Lys-Lys-Arg-Arg-Gln-Arg-Arg-Arg-NH2 [Flu-ArgTat, reference compound] | 2170 ± 1692 a.u. | 5258 ± 2006 a.u. | 7042 ± 1475 a.u. | 8628 ± 3585 a.u. | – | – | – | Cellular uptake seen in fluorescence microscopy images (Jurkat cells [2]): Obvious cellular uptake
10 | Ac-Tyr-Gly-Arg-Lys-Lys-Arg-Arg-Gln-Arg-Cit-Arg-NH2 [Tat-Cit56] | – | – | – | – | – | 55 ± 9 nM | 164 ± 40 nM | –
11 | 6CF-βAla-Tyr-Gly-Cit-Lys-Lys-Arg-Arg-Gln-Arg-Arg-Arg-NH2 [6CF-Tat-Cit49] | 1791 ± 555 a.u. | 6452 ± 740 a.u. | 13284 ± 1441 a.u. | 15784 ± 1567 a.u. | significant cellular uptake | – | – | –
12 | Ac-Tyr-Gly-Arg-Lys-Lys-Arg-Cit-Gln-Arg-Arg-Arg-NH2 [Tat-Cit53] | – | – | – | – | – | 102 ± 11 nM | 344 ± 73 nM | –
13 | Ac-Tyr-Gly-Cit-Lys-Lys-Arg-Arg-Gln-Arg-Arg-Arg-NH2 [Tat-Cit49] | – | – | – | – | – | 94 ± 13 nM | 138 ± 21 nM | –
14 | 6-carboxyfluorescein-βAla-Tyr-Gly-Agh-Lys-Lys-Agh-Agh-Gln-Agh-Agh-Agh-NH2 [Flu-AghTat] | – | – | – | – | – | – | – | Cellular uptake compared to Flu-ArgTat (Jurkat cells [1]; concentrations higher than 7 μM, FIG. 2B): more cellular uptake; Cellular uptake seen in fluorescence microscopy images (Jurkat cells [2]): Obvious cellular uptake
15 | 6CF-βAla-Tyr-Gly-Arg-Lys-Lys-Arg-Arg-Gln-Cit-Arg-Arg-NH2 [6CF-Tat-Cit55] | 793 ± 267 a.u. | 5750 ± 134 a.u. | 9090 ± 707 a.u. | 10152 ± 787 a.u. | significant cellular uptake | – | – | –
16 | 6CF-βAla-Tyr-Gly-Arg-Lys-Lys-Arg-Arg-Gln-Arg-Arg-Cit-NH2 [6CF-Tat-Cit57] | 465 ± 72 a.u. | 1696 ± 167 a.u. | 4031 ± 377 a.u. | 4964 ± 811 a.u. | significant cellular uptake | – | – | –
17 | 6CF-βAla-Tyr-Gly-Arg-Lys-Lys-Arg-Cit-Gln-Arg-Arg-Arg-NH2 [6CF-Tat-Cit53] | 429 ± 19 a.u. | 3417 ± 288 a.u. | 6499 ± 109 a.u. | 10861 ± 1096 a.u. | significant cellular uptake | – | – | –
